In patent US20240368232A1, “ANTIVIRAL LARAZOTIDE DERIVATIVES” (priority 2021, published 2024):
Read-outs that look alike come from different tables or passages of the source. Square brackets hold non-standard residues; d marks the D form. Peptide text beside a SMILES is read from it.

How the values were obtained:
[1] = system: SARS-COV-2 SA (RG) strain; assay: microbe, parasite or virus in culture; conditions: Severe acute respiratory syndrome coronavirus 2, Vero, read-out: Antiviral activity EC50 SA (RG) strain Vero cells
[2] = system: SARS-COV-2 SA (RG) strain

SMILES	EC50 [1] [nM]	EC50 [2] [nM]
CCC(CC)COC(=O)[C@H](C)N[P@](=O)(OC[C@H]1O[C@@](C#N)(c2ccc3c(N)ncnn23)[C@H](O)[C@@H]1O)Oc1ccccc1 [Remdesivir]	840	
CC(=O)NCC(=O)N[C@H](Cc1ccccc1)C(=O)N[C@H](C=O)Cc1c[nH]cn1 [TRIP 5] (Ac-Gly-[dF]-His-aldehyde)		> 100000
